Reference: patent US20260374792A1, “PHENYL-FREE BISCATIONIC QUATERNARY PHOSPHONIUM COMPOUNDS AS ANTIMICROBIAL AGENTS” (priority 2022, published 2026)

Tests used:
E. coli (MC4100) = experiment: MIC against E. coli; type: cell-based; conditions: Escherichia coli, 72 hours, 37 °C
Description: The term “minimum inhibitory concentration (MIC)” means the lowest concentration of an antimicrobial agent that will inhibit the visible growth of a microorganism after overnight incubation. MIC values against bacteria, for example, the Gram-positive Staphylococcus aureus and Enterococcus faecalis and the Gram-negative Escherichia coli and Pseudomonas aeruginosa were determined by standard methods. See also P. A. Wayne, Methods for Dilution Antimicrobial Tests for Bacteria that Grow Aerobically; Approved Standard, Ninth Edition, 2012, CLSI Document M07-A9, Vol. 32 No. 2.
Biological testing procedures were adapted from prior work by Melander and coworkers. For all biological assays, laboratory strains of methicillin-susceptible Staphylococcus aureus MSSA (SH1000), Staphylococcus aureus CA-MRSA (USA300-0114), Staphylococcus aureus HA-MRSA (ATCC 33591), Escherichia coli (MC4100), Enterococcus faecalis (OG1RF), Acinetobacter baumannii (ATCC 17978), were grown with shaking at 37 °C overnight from freezer stocks in 5 mL of the indicated media: SH1000, OG1RF, MC4100, USA300-0114, and ATCC 17978 were grown in BDTM Mueller-Hinton broth (MHB), whereas ATCC 33591 was grown in BDTM tryptic soy broth (TSB). The inoculum were then streaked onto Mueller-Hinton agar (MHA) plates and grown overnight at 37 °C. From the plates, single colonies were selected, diluted into 50 mL of fresh media and grown overnight at 37 °C with shaking for use in the MIC assays. Optical density (OD) measurements were obtained using a SpectraMax iD3 plate reader (Molecular Devices, United States).
Compounds were serially diluted two-fold from stock solutions (1.0 mM) to yield twelve 100 μL test concentrations, wherein the starting concentration of dimethyl sulfoxide (DMSO) was 2.5%. Overnight S. aureus, E. faecalis, E. coli, A. baumannii, USA300-0114 (CA-MRSA), and ATCC 33591 (HA-MRSA) cultures were diluted to ca. 10^6 CFU/mL in MHB or TSB and regrown to mid-exponential phase, as determined by optical density recorded at 600 nm (OD600). All cultures were then diluted again to ca. 10^6 CFU/mL and 100 μL were inoculated into each well of a U-bottom 96-well plate (Corning, 351177) containing 100 μL of compound solution. Plates were incubated statically at 37 °C for 72 hours upon which wells were evaluated visually for bacterial growth. The MIC was determined as the lowest concentration of compound resulting in no bacterial growth visible to the naked eye, based on the highest value in three independent experiments. Aqueous DMSO controls were conducted as appropriate for each compound.
The prepared library of biscationic amphiphilic compounds was assessed for performance as antibacterial disinfectants by determining the minimum inhibitory concentration (MIC) for each against a panel of bacteria. The bacteria selected for the study were chosen to evaluate the broad spectrum antimicrobial performance of the QPCs, and therefore, included both Gram-positive and Gram-negative bacterial strains, including those with known antimicrobial resistance mechanisms. These bacteria include the Gram-positive strains of methicillin-susceptible Staphylococcus aureus [MSSA; SH1000], community-acquired methicillin-resistant Staphylococcus aureus [CA-MRSA; USA 300-0114], hospital-acquired methicillin-resistant Staphylococcus aureus [HA-MRSA; ATCC 33591] and the […], Escherichia coli [MC4100], Acinetobacter baumannii [ATCC 17498] and Pseudomonas aeruginosa [PAO1].

red blood cells = experiment: Red Blood Cell (RBC) Lysis Assay (lysis20); type: cell-based, sheep; conditions: concentration inducing 20% RBC lysis; sheep blood, 1 hour, 37 °C
Description: RBC lysis assays were performed on mechanically defibrinated sheep blood (Hemostat Labs: DSB030). An aliquot of 1.5 mL blood was placed into a microcentrifuge tube and centrifuged at 3,800 rpm for ten minutes. The supernatant was removed, and the cells were resuspended with 1 mL of phosphate-buffered saline (PBS). The suspension was centrifuged as described above, the supernatant was removed, and cells were resuspended 4 additional times in 1 mL PBS. The final cell suspension was diluted twentyfold with PBS. Compounds were serially diluted with PBS two-fold from stock solutions (1.0 mM) to yield 100 μL of twelve test concentrations on a flat-bottom 96-well plate (Corning, 351172), wherein the starting concentration of DMSO was 2.5%. To each of the wells, 100 μL of the twentyfold suspension dilution was then inoculated. TritonX (1% by volume) served as a positive control (100% lysis marker) and sterile PBS served as a negative control (0% lysis marker). Samples were then placed in an incubator at 37 °C and shaken at 200 rpm. After 1 hour, the samples were centrifuged at 3,800 rpm for ten minutes. The absorbance of the supernatant was measured with a UV spectrometer at a 540 nm wavelength. The concentration inducing 20% RBC lysis was then calculated for each compound based upon the absorbances of the TritonX and PBS controls. Aqueous DMSO controls were conducted as appropriate for each compound.
The potential cytotoxicity of the compounds was also considered with the evaluation of hemolysis (lysis20) assays with 20% lysis of red blood cells serving as an indicator of potentially toxic compounds. Finally, the bioactivity of these compounds were benchmarked against a commercial benzalkonium chloride source (BAC; 70% benzyldimethyldodecylammonium chloride, and 30% benzyldimethyltetradecylammonium chloride) as well as some previously reported disinfectant compounds from the inventors' groups; included were bisQPC ^PhP6P-10,10 as well as ^PhP2P-10,10 and 12(2)12. A detailed description of the experimental procedures used to evaluate bioactivity and hemolysis assays are described above.

E. faecalis = experiment: MBEC, biofilm eradication, E. faecalis; type: cell-based, Enterococcus faecalis; conditions: 24 hours, 37 °C, TSB
Description: A regrowth assay was used to establish the MBEC of a compound to evaluate the antibiofilm activity.
Biofilm eradication experiments were performed using a pegged-lid microtiter plate assay to determine the MBEC values for compounds of interest, as previously described. […] Sci. Rep. 2017, 7, 2003; and Raval, Y. S., Flurin, L., Mohamed, A., Greenwood-Quaintance, K. E., Beyenal, H., & Patel, R. In Vitro Activity of Hydrogen Peroxide and Hypochlorous Acid Generated by Electrochemical Scaffolds Against Planktonic and Biofilm Bacteria. Antimicrob Agents Chemother. 2021, 65, e01966-20. Briefly, […] of mid-log phase culture diluted to ca. 10^6 CFU/mL in tryptic soy broth (TSB) was added to wells of plat-bottom 96-well plates (Thermo Scientific, 266120) and covered with 96-pegged lid (Thermo Scientific, 445497). Plates were incubated to establish bacterial biofilms after incubation at 37 °C for 24 hours. The pegged lid was then removed, washed with PBS, and transferred to another 96-well plate containing 2-fold serial dilutions of the test compounds (the “challenge plate”). The total volume in each well was […], comprising of […] of compound diluted in water/DMSO, with a starting DMSO concentration of 2.5%, and […] of TSB. Plates were incubated statically at 37 °C for 24 hours. Next, the pegged lids were transferred to a fresh 96-well plate containing […] of TSB and incubated overnight at 37 °C. MBEC values were determined as the lowest test concentration that resulted eradicated biofilm (i.e., wells displaying no turbidity in the final plate).

Row | Compound | MIC (E. coli (MC4100)) [µM] | Lysis20 (red blood cells) [µM] | MBEC (E. faecalis) [µM]
1 | CCCCCCCCCCCC[N+](C)(C)CC[N+](C)(C)CCCCCCCCCCCC [12(2)12, reference compound] | 2 | 16 | 8
2 | CCCCCCCCCCCC[P+](C)(C)CC[P+](C)(C)CCCCCCCCCCC [^MeP2P-12,12] | 4 | 8 | 8
